Key:
[1] = tested on: primary human mesenchymal stem cells (hMSCs); experiment: Induction of chondrogenesis in hMSCs (nodule area, Rhodamine B / Nile Red); assay type: cell-based; conditions: TGF-β3 as positive control; for Emax: read-out: Max. Activity as % TGF-β3 activity; for EC50: concentration required to induce 50% levels of chondrogenesis, read-out: Conc (nM) of 50% TGF-β3 activity
Outline: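 Primary hMSCs (passage 3–6) in incomplete chondrogenic induction medium were treated 6 days at 37° C. with 1:3 dilutions (2700–10 nM in 96-well or 5000–2.2 nM in 384-well; 0.03% DMSO). Rhodamine B/Nile Red-stained nodule area was imaged, normalized to DMSO wells, and EC50 was set against TGF-β3 (10 ng/mL).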

[2] = tested on: Wnt activity (Wnt-responsive human Sp5 promoter, TCF/LEF binding sites) in SW480 colon carcinoma cells; experiment: Wnt activity screening assay: Sp5-Luc luciferase reporter gene in SW480 cells; assay type: cell-based; conditions: for EC50: 10-point dose-response from 10 μM, incubated overnight; for inhibition at 10 µM: given for EC50 of >10 μM, read-out: percent inhibition at 10 μM
Outline: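 Luminescence read-out (BrightGlo) from stable Sp5-Luc SW480 cells, normalized to DMSO-only wells. Cells were treated overnight at 37° C in 1% FBS medium across a 1:3, 10-point series starting at 10 μM. EC50 from variable-slope four-parameter regression; percent inhibition at 10 μM given where EC50 >10 μM.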

SMILES	EC50 [2]	EC50 [1]	Emax [1]	inhibition at 10 µM [2]
Fc1cccc(-c2nccc3[nH]c(-c4n[nH]c5ccc(C6CCNCC6)nc45)nc23)c1 [Compound 505, 3-(4-(3-Fluorophenyl)-1H-imidazo[4,5-c]pyridin-2-yl)-5-(piperidin-4-yl)-1H-pyrazolo[4,3-b]pyridine]	> 10000 nM	–	46%	11.9%
CCCC(=O)Nc1cncc(-c2ccc3[nH]nc(-c4nc5c(-c6cc(F)cc(CNS(C)(=O)=O)c6)nccc5[nH]4)c3n2)c1 [Compound 493, N-(5-(3-(4-(3-Fluoro-5-(methylsulfonamidomethyl)phenyl)-1H-imidazo[4,5-c]pyridin-2-yl)-1H-pyrazolo[4,3-b]pyridin-5-yl)pyridin-3-yl)butyramide]	> 10000 nM	–	46%	15.1%
O=C(Nc1cncc(-c2ccc3[nH]nc(-c4nc5c(-c6cccc(F)c6)nccc5[nH]4)c3n2)c1)C1CC1 [Compound 20, N-(5-(3-(4-(3-Fluorophenyl)-1H-imidazo[4,5-c]pyridin-2-yl)-1H-pyrazolo [4,3-b]pyridin-5-yl)pyridin-3-yl)cyclopropanecarboxamide]	> 10000 nM	–	–	14.7%
O=C(CC1CCNCC1)Nc1cncc(-c2ccc3[nH]nc(-c4nc5c(-c6ccccn6)nccc5[nH]4)c3n2)c1 [Compound 593, 2-(Piperidin-4-yl)-N-(5-(3-(4-(pyri-2-yl)-1H-imidazo[4,5-c]pyridin-2-yl)-1H-pyrazolo[4,3-b]pyridin-5-yl)pyridin-3-yl)acetamide]	> 10000 nM	–	–	31.4%
O=C(Nc1cncc(-c2ccc3[nH]nc(-c4nc5c(-c6cccs6)nccc5[nH]4)c3n2)c1)C1CC1 [Compound 356, N-(5-(3-(4-(Thiophen-2-yl)-1H-imidazo[4,5-c]pyridin-2-yl)-1H-pyrazolo [4,3-b]pyridin-5-yl)pyridin-3-yl)cyclopropanecarboxamide]	> 10000 nM	–	–	4.1%
c1cc2[nH]c(-c3n[nH]c4ccc(-c5cncc(OCCN6CCCC6)c5)nc34)nc2c(N2CCCCC2)n1 [Compound 610, 3-(4-(Piperidin-1-yl)-1H-imidazo[4,5-c]pyridin-2-yl)-5-(5-(2-(pyrrolidin-1-yl)ethoxy)pyridin-3-yl)-1H-pyrazolo[4,3-b]pyridine]	> 10000 nM	–	–	46.2%
c1ccc(COc2cncc(-c3ccc4[nH]nc(-c5nc6c(-c7ccncc7)nccc6[nH]5)c4n3)c2)cc1 [Compound 582, 5-(5-(Benzyloxy)pyridin-3-yl)-3-(4-(pyridin-4-yl)-1H-imidazo[4,5-c]pyridin-2-yl)-1H-pyrazolo[4,3-b]pyridine]	> 10000 nM	–	–	18.1%
Cc1cn(-c2nccc3[nH]c(-c4n[nH]c5ccc(-c6cncc(OCCN(C)C)c6)nc45)nc23)cn1 [Compound 627, N,N-Dimethyl-2-((5-(3-(4-(4-methyl-1H-imidazol-1-yl)-1H-imidazo[4,5-c]pyridin-2-yl)-1H-pyrazolo[4,3-b]pyridin-5-yl)pyridin-3-yl)oxy)ethan-1-amine]	> 10000 nM	–	–	11.8%
CCNCc1cncc(-c2ccc3[nH]nc(-c4nc5c(-c6cc(F)cc(NCCN(C)C)c6)nccc5[nH]4)c3n2)c1 [Compound 454, N^1-(3-(2-(5-(5-((Ethylamino)methyl)pyridin-3-yl)-1H-pyrazolo[4,3-b]pyridin-3-yl)-1H-imidazo[4,5-c]pyridin-4-yl)-5-fluorophenyl)-N^2,N^2-dimethylethane-1,2-diamine]	9950 nM	–	36%	–
CS(=O)(=O)NCc1cc(F)cc(-c2nccc3[nH]c(-c4n[nH]c5ccc(-c6cncnc6)nc45)nc23)c1 [Compound 503, N-(3-Fluoro-5-(2-(5-(pyrimidin-5-yl)-1H-pyrazolo[4,3-b]pyridin-3-yl)-1H-imidazo[4,5-c]pyridin-4-yl)benzyl)methanesulfonamide]	> 10000 nM	–	–	18.7%
c1cc(-c2nccc3[nH]c(-c4n[nH]c5ccc(-c6cncc(OC7CCNCC7)c6)nc45)nc23)ccn1 [Compound 576, 5-(5-(Piperidin-4-yloxy)pyridin-3-yl)-3-(4-(pyridin-4-yl)-1H-imidazo[4,5-c]pyridin-2-yl)-1H-pyrazolo[4,3-b]pyridine]	> 10000 nM	–	–	17.9%
CS(=O)(=O)NCc1cc(F)cc(-c2nccc3[nH]c(-c4n[nH]c5ccc(-c6cncc(NC(=O)c7ccccc7)c6)nc45)nc23)c1 [Compound 487, N-(5-(3-(4-(3-Fluoro-5-(methylsulfonamidomethyl)phenyl)-1H-imidazo[4,5-c]pyridin-2-yl)-1H-pyrazolo[4,3-b]pyridin-5-yl)pyridin-3-yl)benzamide]	> 10000 nM	–	–	0%
Cc1ccc(-c2nccc3[nH]c(-c4n[nH]c5ccc(-c6cncc(NC(=O)C7CCCC7)c6)nc45)nc23)s1 [Compound 414, N-(5-(3-(4-(5-Methylthiophen-2-yl)-1H-imidazo[4,5-c]pyridin-2-yl)-1H-pyrazolo[4,3-b]pyridin-5-yl)pyridin-3-yl)cyclopentanecarboxamide]	> 10000 nM	–	–	23.8%
c1cc(-c2nccc3[nH]c(-c4n[nH]c5ccc(-c6cnccn6)nc45)nc23)ccn1 [Compound 584, 5-(Pyrazin-2-yl)-3-(4-(pyridin-4-yl)-1H-imidazo[4,5-c]pyridin-2-yl)-1H-pyrazolo[4,3-b]pyridine]	> 10000 nM	–	–	5.7%

The next molecules have a lower EC50 [2] than those just listed; values first:

EC50 [2]	EC50 [1]	SMILES	Emax [1]	inhibition at 10 µM [2]
8650 nM	–	CN(C)CCNc1cc(F)cc(-c2nccc3[nH]c(-c4n[nH]c5ccc(-c6ccccn6)nc45)nc23)c1 [Compound 476, N^1-(3-Fluoro-5-(2-(5-(pyridin-2-yl)-1H-pyrazolo[4,3-b]pyridin-3-yl)-1H-imidazo[4,5-c]pyridin-4-yl)phenyl)-N^2,N^2-dimethylethane-1,2-diamine]	–	–
8020 nM	10 nM	CN(C)Cc1cncc(-c2ccc3[nH]nc(-c4nc5c(-c6cccs6)nccc5[nH]4)c3n2)c1 [Compound 349, N,N-dimethyl-1-(5-(3-(4-(thiophen-2-yl)-1H-imidazo[4,5-c]pyridin-2-yl)-1H-pyrazolo[4,3-b]pyridin-5-yl)pyridin-3-yl)methanamine]	75%	–
3480 nM	2 nM	CN(C)CCOc1cncc(-c2ccc3[nH]nc(-c4nc5c(-c6cccc(F)c6)nccc5[nH]4)c3n2)c1 [Compound 515, 2-((5-(3-(4-(3-Fluorophenyl)-1H-imidazo[4,5-c]pyridin-2-yl)-1H-pyrazolo [4,3-b]pyridin-5-yl)pyridin-3-yl)oxy)-N,N-dimethylethan-1-amine]	59%	–
3250 nM	–	c1cncc(-c2nccc3[nH]c(-c4n[nH]c5ccc(-c6cncc(OC7CCCCC7)c6)nc45)nc23)c1 [Compound 559, 5-(5-(Cyclohexyloxy)pyridin-3-yl)-3-(4-(pyridin-3-yl)-1H-imidazo[4,5-c]pyridin-2-yl)-1H-pyrazolo[4,3-b]pyridine]	–	–
2450 nM	–	Fc1cccc(-c2nccc3[nH]c(-c4n[nH]c5ccc(-c6cncc(OCCN7CCCC7)c6)nc45)nc23)c1 [Compound 514, 3-(4-(3-Fluorophenyl)-1H-imidazo[4,5-c]pyridin-2-yl)-5-(5-(2-(pyrrolidin-1-yl)ethoxy)pyridin-3-yl)-1H-pyrazolo[4,3-b]pyridine]	–	–
2370 nM	–	Cc1ccncc1-c1ccc2[nH]nc(-c3nc4c(-c5cc(F)cc(CNS(C)(=O)=O)c5)nccc4[nH]3)c2n1 [Compound 481, N-(3-Fluoro-5-(2-(5-(4-methylpyridin-3-yl)-1H-pyrazolo[4,3-b]pyridin-3-yl)-1H-imidazo[4,5-c]pyridin-4-yl)benzyl)methanesulfonamide]	30%	–
1280 nM	21 nM	COc1cncc(-c2ccc3[nH]nc(-c4nc5c(-c6cccc(F)c6)nccc5[nH]4)c3n2)c1 [Compound 516, 3-(4-(3-Fluorophenyl)-1H-imidazo[4,5-c]pyridin-2-yl)-5-(5-methoxypyridin-3-yl)-1H-pyrazolo[4,3-b]pyridine]	60%	–
843 nM	2 nM	Fc1cccc(-c2nccc3[nH]c(-c4n[nH]c5ccc(-c6ccncc6)nc45)nc23)c1 [Compound 18, 3-(4-(3-Fluorophenyl)-1H-imidazo[4,5-c]pyridin-2-yl)-5-(pyridin-4-yl)-1H-pyrazolo[4,3-b]pyridine]	53%	–
523 nM	7 nM	Oc1cncc(-c2ccc3[nH]nc(-c4nc5c(-c6cccc(F)c6)nccc5[nH]4)c3n2)c1 [Compound 517, 5-(3-(4-(3-Fluorophenyl)-1H-imidazo[4,5-c]pyridin-2-yl)-1H-pyrazolo[4,3-b]pyridin-5-yl)pyridin-3-ol]	57%	–
456 nM	–	Oc1cncc(-c2ccc3[nH]nc(-c4nc5c(-c6cccnc6)nccc5[nH]4)c3n2)c1 [Compound 565, 5-(3-(4-(Pyridin-3-yl)-1H-imidazo[4,5-c]pyridin-2-yl)-1H-pyrazolo[4,3-b]pyridin-5-yl)pyridin-3-ol]	–	–
50 nM	10 nM	Cc1ccc(-c2nccc3[nH]c(-c4n[nH]c5ccc(-c6cncc(N)c6)nc45)nc23)s1 [Compound 395, 5-(3-(4-(5-Methylthiophen-2-yl)-1H-imidazo[4,5-c]pyridin-2-yl)-1H-pyrazolo[4,3-b]pyridin-5-yl)pyridin-3-amine]	73%	–

Source: patent publication US10195185B2, “3-(1H-imidazo[4,5-C]pyridin-2-yl)-1H-pyrazolo[4,3-B]pyridines and therapeutic uses thereof” (Samumed, LLC, priority 2015, dated 2019)
